From US12077503B2, “Substituted cyclic amides and their use as herbicides” (FMC CORPORATION, priority 2015, dated 2024)

Columns and labels:
Format in all cases: in vivo
corn (Zea mays) [1] = assay: Test G Pre-Emergence Protocol; conditions: Zea mays, pre-emergence, 312 h, evaluated after 13 days
Summary of the method: (§1)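 Spraying took place one day after sowing, at 15.625, 62.5 or 250 g/ha, using an acetone/water (50:50) spray solution containing 0.5% Tween 20. Plants were kept under glasshouse conditions (24/16 °C, 14 h light, 65% humidity, watered twice daily), and injury was rated 0–100 at day 13.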

[2] = test system: redroot pigweed (Amaranthus retroflexus); assay: Test G Pre-Emergence Protocol; conditions: Amaranthus retroflexus, pre-emergence, 312 h, evaluated after 13 days
Summary of the method: as §1

[3] = test system: giant foxtail (Setaria faberi); assay: Test G Pre-Emergence Protocol; conditions: Setaria faberi, pre-emergence, 312 h, evaluated after 13 days
Summary of the method: as §1

[4] = test system: ivy-leaved morning glory (Ipomoea hederacea); assay: Test G Pre-Emergence Protocol; conditions: Ipomoea, pre-emergence, 312 h, evaluated after 13 days
Summary of the method: as §1

[5] = test system: velvetleaf (Abutilon theophrasti); assay: Test G Pre-Emergence Protocol; conditions: Abutilon theophrasti, pre-emergence, 312 h, evaluated after 13 days
Summary of the method: as §1

[6] = test system: barnyardgrass (Echinochloa crus-galli); assay: Test G Pre-Emergence Protocol; conditions: Echinochloa crus-galli, pre-emergence, 312 h, evaluated after 13 days
Summary of the method: as §1

corn (Zea mays) [7] = assay: Test G Post-Emergence Protocol; conditions: Zea mays, post-emergence, 312 h, read-out: Corn damage rating
Summary of the method: (§2)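 Pot-grown seedlings, 8 days old, raised in a glasshouse at 24/16 °C day/night with 14 h light and 65% humidity, were sprayed post-emergence with test compound in acetone/water (50:50) plus 0.5% Tween 20 at 15.625, 62.5 or 250 g/ha. Damage was scored visually 13 days later on a 0–100 scale (100 = total damage).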

[8] = test system: redroot pigweed (Amaranthus retroflexus); assay: Test G Post-Emergence Protocol; conditions: Amaranthus retroflexus, post-emergence, 312 h, read-out: Pigweed, Redroot damage rating
Summary of the method: as §2

[9] = test system: giant foxtail (Setaria faberi); assay: Test G Post-Emergence Protocol; conditions: Setaria faberi, post-emergence, 312 h, read-out: Foxtail, Giant damage rating
Summary of the method: as §2

[10] = test system: ivy-leaved morning glory (Ipomoea hederacea); assay: Test G Post-Emergence Protocol; conditions: Ipomoea, post-emergence, 312 h, read-out: Morningglory, Ivy-leaved damage rating
Summary of the method: as §2

[11] = test system: velvetleaf (Abutilon theophrasti); assay: Test G Post-Emergence Protocol; conditions: Abutilon theophrasti, post-emergence, 312 h, read-out: Velvetleaf damage rating
Summary of the method: as §2

[12] = test system: barnyardgrass (Echinochloa crus-galli); assay: Test G Post-Emergence Protocol; conditions: Echinochloa crus-galli, post-emergence, 312 h, read-out: Barnyardgrass damage rating
Summary of the method: as §2

[13] = 15.625 g ai/ha, evaluated after 13 days (100=total damage to plant; 0=no damage to plant)
[14] = 62.5 g ai/ha, evaluated after 13 days, 100=total damage to plant, 0=no damage to plant
[15] = 250 g ai/ha, evaluated after 13 days, 100=total damage to plant, 0=no damage to plant

Cc1c[nH]nc1NC(=O)[C@@H]1C(=O)N(C)C[C@H]1c1ccc(C(F)(F)F)cc1 (racemic) [Compound 1660]
0%: plant injury at 15.625 g/ha (corn (Zea mays) [1]; 15.625 g ai/ha, read-out: Corn damage rating (100=total damage to plant; 0=no damage to plant)) | plant injury at 62.5 g/ha (corn (Zea mays) [1]; 62.5 g ai/ha, 100=total damage to plant, 0=no damage to plant, read-out: Corn damage rating) | plant injury at 250 g/ha (corn (Zea mays) [1]; 250 g ai/ha, read-out: Corn damage rating (100=total damage to plant; 0=no damage to plant)) | pest or weed control at 15.625 g/ha ([2]; 15.625 g ai/ha, read-out: Pigweed, Redroot damage rating (100=total damage to plant; 0=no damage to plant)) | pest or weed control at 62.5 g/ha ([2]; 62.5 g ai/ha, 100=total damage to plant, 0=no damage to plant, read-out: Pigweed, Redroot damage rating) | pest or weed control at 250 g/ha ([2]; 250 g ai/ha, read-out: Pigweed, Redroot damage rating (100=total damage to plant; 0=no damage to plant)) | pest or weed control at 15.625 g/ha ([3]; 15.625 g ai/ha, read-out: Foxtail, Giant damage rating (100=total damage to plant; 0=no damage to plant)) | pest or weed control at 62.5 g/ha ([3]; 62.5 g ai/ha, 100=total damage to plant, 0=no damage to plant, read-out: Foxtail, Giant damage rating) | pest or weed control at 250 g/ha ([3]; 250 g ai/ha, read-out: Foxtail, Giant damage rating (100=total damage to plant; 0=no damage to plant)) | pest or weed control at 15.625 g/ha ([4]; 15.625 g ai/ha, read-out: Morningglory, Ivy-leaved damage rating (100=total damage to plant; 0=no damage to plant)) | pest or weed control at 62.5 g/ha ([4]; 62.5 g ai/ha, 100=total damage to plant, 0=no damage to plant, read-out: Morningglory, Ivy-leaved damage rating) | pest or weed control at 250 g/ha ([4]; 250 g ai/ha, read-out: Morningglory, Ivy-leaved damage rating (100=total damage to plant; 0=no damage to plant)) | pest or weed control at 15.625 g/ha ([5]; 15.625 g ai/ha, read-out: Velvetleaf damage rating (100=total damage to plant; 0=no damage to plant)) | pest or weed control at 62.5 g/ha ([5]; 62.5 g ai/ha, 100=total damage to plant, 0=no damage to plant, read-out: Velvetleaf damage rating) | pest or weed control at 250 g/ha ([5]; 250 g ai/ha, read-out: Velvetleaf damage rating (100=total damage to plant; 0=no damage to plant)) | pest or weed control at 15.625 g/ha ([6]; 15.625 g ai/ha, read-out: Barnyardgrass damage rating (100=total damage to plant; 0=no damage to plant)) | pest or weed control at 62.5 g/ha ([6]; 62.5 g ai/ha, 100=total damage to plant, 0=no damage to plant, read-out: Barnyardgrass damage rating) | pest or weed control at 250 g/ha ([6]; 250 g ai/ha, read-out: Barnyardgrass damage rating (100=total damage to plant; 0=no damage to plant)) | plant injury at 15.625 g/ha (corn (Zea mays) [7]; [13]) | plant injury at 62.5 g/ha (corn (Zea mays) [7]; [14]) | plant injury at 250 g/ha (corn (Zea mays) [7]; [15]) | pest or weed control at 15.625 g/ha [8, 13] | pest or weed control at 62.5 g/ha [8, 14] | pest or weed control at 250 g/ha [8, 15] | pest or weed control at 15.625 g/ha [9, 13] | pest or weed control at 62.5 g/ha [9, 14] | pest or weed control at 250 g/ha [9, 15] | pest or weed control at 15.625 g/ha [10, 13] | pest or weed control at 62.5 g/ha [10, 14] | pest or weed control at 250 g/ha [10, 15] | pest or weed control at 15.625 g/ha [11, 13] | pest or weed control at 62.5 g/ha [11, 14] | pest or weed control at 250 g/ha [11, 15] | pest or weed control at 15.625 g/ha [12, 13] | pest or weed control at 62.5 g/ha [12, 14] | pest or weed control at 250 g/ha [12, 15]
